Reference: US20230038929A1, “Fused Tricyclic Heterocyclic Compounds and Uses Thereof” (Verge Analytics, Inc., priority 2019, published 2023)
Structures can show the parent of a compound that is named as a salt. Where two headings read alike, the source gives them in different places.

Legend:
Assay type in all cases: biochemical
[1] = molecular target: T1, Full length human recombinant PIKFYVE (Homo sapiens, UniProt Q9Y2I7, L932S/Q1183K/Q995L/S1033A/S696N/T998S); experiment: Inhibition of PIKfyve (microfluidic electrophoresis kinase assay)
T1 construct: Full length human recombinant PIKFYVE; purchased Carna Biosciences (Kobe, Japan); host or cells: baculovirus expression system (insect cells)
Method: Biological Example 1: Inhibition of PIKfyve
Full length human recombinant PIKFYVE expressed in baculovirus expression system as N-terminal GST-fusion protein (265 kDa) was obtained from Carna Biosciences (Kobe, Japan). The kinase substrate was prepared by mixing and sonicating fluorescently-labeled phosphatidylinositol 3-phosphate (PI3P) with phospho-L-serine (PS) at a 1:10 ratio in 50 mM HEPES buffer pH7.5.
The kinase reactions were assembled in 384-well plates (Greiner) in a total volume of […] as follows. Kinase protein was pre-diluted in an assay buffer comprising 25 mM HEPES, pH 7.5, 1 mM DTT, 2.5 mM MgCl2, and 2.5 mM MnCl2, and 0.005% Triton X-100, and dispensed into a 384-well plate (10 μL per well). Test compounds were serially pre-diluted in DMSO and added to the protein samples by acoustic dispensing (Labcyte Echo). The concentration of DMSO was equalized to 1% in all samples. All test compounds were tested at 12 concentrations. Apilimod was used as a reference compound and was tested in identical manner in each assay plate. Control samples (0%-inhibition, in the absence of inhibitor, DMSO only) and 100%-inhibition (in the absence of enzyme) were assembled in replicates of four and were used to calculate %-inhibition in the presence of compounds. The reactions were initiated by addition of 10 μL of 2× PI3P/PS substrate supplemented with ATP. The final concentration of enzyme was 2 nM, the final concentration of ATP was […], and the final concentration of PI3P/PS substrate was 1 μM (PI3P). The kinase reactions were allowed to proceed for 3 h at room temperature. Following incubation, the reactions were quenched by addition of […] of termination buffer (100 mM HEPES, pH 7.5, 0.01% Triton X-100, 20 mM EDTA). Terminated plates were analyzed on a microfluidic electrophoresis instrument (Caliper LabChip® 3000, Caliper Life Sciences/Perkin Elmer). The change in the relative fluorescence intensity of the PI(3)P substrate and PI(3,5)P product peaks was measured. The activity in each test sample was determined as the product to sum ratio (PSR): P/(S+P), where P is the peak height of the product, and S is the peak height of the substrate. Percent inhibition (Pinh) was determined using the following equation:
Pinh=(PSR0%inh−PSRcompound)/(PSR0%inh−P100%inh)*100
in which PSRcompound is the product/sum ratio in the presence of compound, PSR0%inh is the product/sum ratio in the absence of compound, and the PSR100%inh is the product/sum ratio in the absence of the enzyme. To determine the ICso of test compounds (50%-inhibition) the %-inh cdata (Pinh versus compound concentration) were fitted by a four-parameter sigmoid dose-response model using XLfit software (IDBS).

PI3Kα (p110α/p85α) = molecular target: T2, PI3Kα (p110α/p85α) (Homo sapiens, UniProt P42336)
T2 construct: Full-length N-terminal; FLAG (N); host or cells: SF9 cells (baculovirus)

PI3Kβ (p110β/p85α) = molecular target: T3, PI3Kβ (p110β/p85α) (Homo sapiens, UniProt P42338)
T3 construct: Full-length N-terminal GST-; GST (N); host or cells: SF9 cells (baculovirus)

PI3Kδ (p110δ/p85α) = molecular target: T4, PI3Kδ (p110δ/p85α) (Homo sapiens, UniProt O00329)
T4 construct: Full-length N-terminal GST-; GST (N); host or cells: SF9 cells (baculovirus)

[2] = 2 nM enzyme, 1 μM PI3P, 3 h at room temperature, 12 concentrations, read-out: PIKfyve IC50
[3] = 0.5 nM enzyme, ATP 90 μM, 1 μM PIP2, 3 h room temperature, read-out: PI3Kα IC50
[4] = 1 nM enzyme, ATP 60 μM, 1 μM PIP2, 3 h room temperature, read-out: PI3Kβ IC50
[5] = 0.25 nM enzyme, ATP 90 μM, 1 μM PIP2, 3 h room temperature, read-out: PI3Kδ IC50

T3 sequence (P42338 whole entry): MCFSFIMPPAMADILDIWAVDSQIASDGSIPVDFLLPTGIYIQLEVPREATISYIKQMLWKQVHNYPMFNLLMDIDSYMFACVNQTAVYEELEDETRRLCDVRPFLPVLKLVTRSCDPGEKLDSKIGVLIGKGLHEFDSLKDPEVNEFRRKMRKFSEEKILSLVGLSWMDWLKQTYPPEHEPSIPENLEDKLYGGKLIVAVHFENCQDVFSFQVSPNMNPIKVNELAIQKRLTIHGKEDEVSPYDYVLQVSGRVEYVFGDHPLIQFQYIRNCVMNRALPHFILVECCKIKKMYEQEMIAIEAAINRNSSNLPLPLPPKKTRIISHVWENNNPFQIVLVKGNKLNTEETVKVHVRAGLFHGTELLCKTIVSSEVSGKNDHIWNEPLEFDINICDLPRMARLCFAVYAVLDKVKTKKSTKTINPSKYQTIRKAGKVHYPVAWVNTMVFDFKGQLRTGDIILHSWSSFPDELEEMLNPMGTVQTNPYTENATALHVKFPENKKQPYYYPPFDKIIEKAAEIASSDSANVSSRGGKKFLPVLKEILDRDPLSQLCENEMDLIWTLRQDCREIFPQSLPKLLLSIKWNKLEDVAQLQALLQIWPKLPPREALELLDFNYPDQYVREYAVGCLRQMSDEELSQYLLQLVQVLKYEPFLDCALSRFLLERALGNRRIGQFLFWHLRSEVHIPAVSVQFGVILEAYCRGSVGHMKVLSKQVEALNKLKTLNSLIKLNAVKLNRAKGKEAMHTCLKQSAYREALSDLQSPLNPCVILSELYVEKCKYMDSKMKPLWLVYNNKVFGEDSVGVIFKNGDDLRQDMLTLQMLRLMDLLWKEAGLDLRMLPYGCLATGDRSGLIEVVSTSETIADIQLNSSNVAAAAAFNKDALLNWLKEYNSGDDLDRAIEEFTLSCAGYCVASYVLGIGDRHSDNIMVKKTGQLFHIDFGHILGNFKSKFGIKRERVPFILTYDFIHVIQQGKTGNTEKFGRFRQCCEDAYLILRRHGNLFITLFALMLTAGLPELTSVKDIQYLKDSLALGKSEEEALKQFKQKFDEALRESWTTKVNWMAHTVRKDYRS
T3 sequence (P27986 whole entry, further chain): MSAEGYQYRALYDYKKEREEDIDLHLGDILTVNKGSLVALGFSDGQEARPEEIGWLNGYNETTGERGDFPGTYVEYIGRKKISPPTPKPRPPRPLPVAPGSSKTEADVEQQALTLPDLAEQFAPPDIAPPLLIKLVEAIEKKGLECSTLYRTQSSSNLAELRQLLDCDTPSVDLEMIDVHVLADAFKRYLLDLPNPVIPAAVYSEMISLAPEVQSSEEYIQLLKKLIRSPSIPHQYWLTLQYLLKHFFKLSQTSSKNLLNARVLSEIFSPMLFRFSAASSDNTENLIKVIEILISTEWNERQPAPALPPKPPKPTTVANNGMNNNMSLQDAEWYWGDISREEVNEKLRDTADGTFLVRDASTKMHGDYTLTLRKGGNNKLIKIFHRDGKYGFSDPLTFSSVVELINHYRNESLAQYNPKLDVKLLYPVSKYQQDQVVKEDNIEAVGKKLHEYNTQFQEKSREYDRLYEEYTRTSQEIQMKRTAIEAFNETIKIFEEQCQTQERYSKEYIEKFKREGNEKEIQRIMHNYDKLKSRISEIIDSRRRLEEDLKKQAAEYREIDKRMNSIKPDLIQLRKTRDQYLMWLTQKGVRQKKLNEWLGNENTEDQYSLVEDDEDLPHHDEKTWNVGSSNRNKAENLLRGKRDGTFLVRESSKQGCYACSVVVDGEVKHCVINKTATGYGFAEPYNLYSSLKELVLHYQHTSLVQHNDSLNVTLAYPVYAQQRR
T1 sequence (Q9Y2I7 whole entry S696N/L932S/Q995L/T998S/S1033A/Q1183K): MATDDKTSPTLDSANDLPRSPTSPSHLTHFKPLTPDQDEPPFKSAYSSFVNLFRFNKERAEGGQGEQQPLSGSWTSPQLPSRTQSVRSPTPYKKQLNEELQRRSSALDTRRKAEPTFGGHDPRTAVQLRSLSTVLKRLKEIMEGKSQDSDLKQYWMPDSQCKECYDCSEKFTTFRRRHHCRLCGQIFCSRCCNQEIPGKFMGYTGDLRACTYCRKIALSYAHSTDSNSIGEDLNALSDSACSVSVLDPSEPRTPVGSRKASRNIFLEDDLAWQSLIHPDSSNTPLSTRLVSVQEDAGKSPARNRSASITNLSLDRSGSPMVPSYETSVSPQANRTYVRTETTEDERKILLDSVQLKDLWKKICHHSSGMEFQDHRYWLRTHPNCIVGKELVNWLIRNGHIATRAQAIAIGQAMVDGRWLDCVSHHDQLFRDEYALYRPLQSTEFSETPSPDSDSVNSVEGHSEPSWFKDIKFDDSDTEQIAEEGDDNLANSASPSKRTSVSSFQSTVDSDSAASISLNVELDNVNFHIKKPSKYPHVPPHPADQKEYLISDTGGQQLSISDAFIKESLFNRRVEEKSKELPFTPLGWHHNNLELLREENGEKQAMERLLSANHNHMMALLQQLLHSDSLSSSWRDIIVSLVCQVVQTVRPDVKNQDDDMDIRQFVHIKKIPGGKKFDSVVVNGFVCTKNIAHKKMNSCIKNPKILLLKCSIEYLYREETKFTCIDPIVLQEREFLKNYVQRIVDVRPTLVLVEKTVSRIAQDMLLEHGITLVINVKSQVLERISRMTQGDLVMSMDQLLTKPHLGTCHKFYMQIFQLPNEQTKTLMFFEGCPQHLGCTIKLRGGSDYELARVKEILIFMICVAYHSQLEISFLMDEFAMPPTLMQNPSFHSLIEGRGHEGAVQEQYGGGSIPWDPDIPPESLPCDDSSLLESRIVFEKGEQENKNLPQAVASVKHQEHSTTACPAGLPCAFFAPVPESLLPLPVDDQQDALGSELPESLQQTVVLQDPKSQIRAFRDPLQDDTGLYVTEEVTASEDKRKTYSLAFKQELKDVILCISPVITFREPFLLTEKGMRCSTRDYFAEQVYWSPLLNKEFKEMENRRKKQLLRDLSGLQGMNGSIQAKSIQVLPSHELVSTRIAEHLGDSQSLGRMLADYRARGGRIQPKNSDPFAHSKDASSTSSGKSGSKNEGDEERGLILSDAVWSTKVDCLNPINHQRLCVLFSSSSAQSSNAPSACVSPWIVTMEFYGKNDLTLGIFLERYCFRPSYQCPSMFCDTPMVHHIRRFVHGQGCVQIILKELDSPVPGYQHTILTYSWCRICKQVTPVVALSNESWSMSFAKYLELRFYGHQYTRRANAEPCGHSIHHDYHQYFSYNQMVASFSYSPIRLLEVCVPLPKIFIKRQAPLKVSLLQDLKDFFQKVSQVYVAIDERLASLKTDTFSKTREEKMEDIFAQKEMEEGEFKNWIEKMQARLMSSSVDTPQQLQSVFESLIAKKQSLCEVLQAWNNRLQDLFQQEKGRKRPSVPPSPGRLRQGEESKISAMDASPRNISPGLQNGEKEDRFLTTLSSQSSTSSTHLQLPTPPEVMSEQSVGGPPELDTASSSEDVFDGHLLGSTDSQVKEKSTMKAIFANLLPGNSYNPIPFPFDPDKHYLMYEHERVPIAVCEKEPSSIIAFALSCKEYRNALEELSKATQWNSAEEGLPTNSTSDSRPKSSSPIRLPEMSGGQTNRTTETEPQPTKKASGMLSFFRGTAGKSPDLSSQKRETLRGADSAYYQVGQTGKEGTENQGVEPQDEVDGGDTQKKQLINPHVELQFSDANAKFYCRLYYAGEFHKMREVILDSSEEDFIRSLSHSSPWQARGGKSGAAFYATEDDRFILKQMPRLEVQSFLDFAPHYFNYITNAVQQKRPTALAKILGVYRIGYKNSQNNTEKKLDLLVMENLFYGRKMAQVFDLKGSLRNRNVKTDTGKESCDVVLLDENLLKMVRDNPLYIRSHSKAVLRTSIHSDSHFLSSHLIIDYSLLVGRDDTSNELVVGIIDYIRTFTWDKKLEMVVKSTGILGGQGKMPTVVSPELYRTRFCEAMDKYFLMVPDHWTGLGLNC
T2 sequence (P42336 whole entry): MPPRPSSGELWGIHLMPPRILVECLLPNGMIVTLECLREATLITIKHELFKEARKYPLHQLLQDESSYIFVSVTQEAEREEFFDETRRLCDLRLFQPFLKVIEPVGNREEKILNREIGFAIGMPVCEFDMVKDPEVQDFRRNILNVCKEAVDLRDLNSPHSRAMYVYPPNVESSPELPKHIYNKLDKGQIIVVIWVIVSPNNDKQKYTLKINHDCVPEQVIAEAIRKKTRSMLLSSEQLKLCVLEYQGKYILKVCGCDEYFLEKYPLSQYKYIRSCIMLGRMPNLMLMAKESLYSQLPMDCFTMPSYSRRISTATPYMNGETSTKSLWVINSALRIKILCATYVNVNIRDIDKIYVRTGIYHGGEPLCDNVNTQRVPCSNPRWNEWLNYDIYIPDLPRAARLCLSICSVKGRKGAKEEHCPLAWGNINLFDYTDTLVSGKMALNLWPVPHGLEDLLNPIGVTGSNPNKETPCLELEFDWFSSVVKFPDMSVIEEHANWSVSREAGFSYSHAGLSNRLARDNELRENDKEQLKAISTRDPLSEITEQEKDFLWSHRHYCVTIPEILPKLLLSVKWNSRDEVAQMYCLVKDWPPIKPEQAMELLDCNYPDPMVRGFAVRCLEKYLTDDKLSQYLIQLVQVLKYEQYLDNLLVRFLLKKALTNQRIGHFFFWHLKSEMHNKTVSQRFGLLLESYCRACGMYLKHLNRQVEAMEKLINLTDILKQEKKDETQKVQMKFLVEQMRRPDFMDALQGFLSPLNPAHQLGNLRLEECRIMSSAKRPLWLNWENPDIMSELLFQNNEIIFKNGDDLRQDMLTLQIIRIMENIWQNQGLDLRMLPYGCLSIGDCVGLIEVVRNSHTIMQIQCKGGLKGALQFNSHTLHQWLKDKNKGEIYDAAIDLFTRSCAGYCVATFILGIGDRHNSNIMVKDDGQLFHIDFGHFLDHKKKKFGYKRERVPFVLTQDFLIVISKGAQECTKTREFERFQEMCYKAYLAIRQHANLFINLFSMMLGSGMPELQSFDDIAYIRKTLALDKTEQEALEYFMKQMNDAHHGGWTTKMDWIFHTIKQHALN
T2 sequence (P27986 whole entry, further chain): as the sequence (P27986 whole entry, further chain) above

Structure (SMILES)	IC50 [1, 2] [µM]	IC50 (PI3Kα (p110α/p85α); [3]) [µM]	IC50 (PI3Kβ (p110β/p85α); [4]) [µM]	IC50 (PI3Kδ (p110δ/p85α); [5]) [µM]	other results
Cc1cc(Nc2nc(N3CCOCC3)c3oc4ncccc4c3n2)[nH]n1 [Example 8, N-(3-Methyl-1H-pyrazol-5-yl)-4-morpholinopyrido[3′,2′:4,5]furo[3,2-d]pyrimidin-2-amine]	2.2	0.161	0.306	0.0239	
Cn1ccnc1Nc1nc(N2CCOCC2)c2oc3ncccc3c2n1 [Example 12, N-(1-Methyl-1H-imidazol-2-yl)-4-morpholinopyrido[3′,2′:4,5]furo[3,2-d]pyrimidin-2-amine]	> 10	1.64	6.54	1.89	
c1ccc(CCNc2nc(N3CCOCC3)c3oc4ncccc4c3n2)cc1 [Example 21, 4-morpholino-N-phenethylpyrido[3′,2′:4,5]furo[3,2-d]pyrimidin-2-amine]	0.988	0.158	0.243	0.0374	
O=C(Nc1nc(N2CCOCC2)c2oc3ncccc3c2n1)Oc1ccccc1 [Example 22, phenyl(4-morpholinopyrido[3′,2′:4,5]furo[3,2-d]pyrimidin-2-yl)carbamate hydrochloride]					IC50 [1]: 6.4 µM; IC50 (PI3Kα (p110α/p85α)): 0.802 µM; IC50 (PI3Kβ (p110β/p85α)): 2.7 µM; IC50 (PI3Kδ (p110δ/p85α)): 0.464 µM
C[C@H](Nc1nc(N2CCOCC2)c2oc3ncccc3c2n1)C1CC1 [Example 36, (S)-N-(1-cyclopropylethyl)-4-morpholinopyrido[3′,2′:4,5]furo[3,2-d]pyrimidin-2-amine]	> 10	0.077	0.749	0.077	
c1cnc2oc3c(N4CCOCC4)nc(Nc4ccncc4)nc3c2c1 [Example 38, 4-morpholino-N-(pyridin-4-yl)pyrido[3′,2′:4,5]furo[3,2-d]pyrimidin-2-amine]	> 10	8.74	5.82	1.49	
c1cncc(Nc2nc(N3CCOCC3)c3oc4ncccc4c3n2)c1 [Example 39, 4-morpholino-N-(pyridin-3-yl)pyrido[3′,2′:4,5]furo[3,2-d]pyrimidin-2-amine]	2.18	0.082	0.37	0.06	
c1ccc(Nc2nc(N3CCOCC3)c3oc4ncccc4c3n2)nc1 [Example 40, 4-morpholino-N-(pyridin-2-yl)pyrido[3′,2′:4,5]furo[3,2-d]pyrimidin-2-amine]	2.77	0.102	1.19	0.066	
c1cnc2oc3c(N4CCOCC4)nc(Nc4ccncn4)nc3c2c1 [Example 41, 4-morpholino-N-(pyrimidin-4-yl)pyrido[3′,2′:4,5]furo[3,2-d]pyrimidin-2-amine]	> 10				
c1cnc(Nc2nc(N3CCOCC3)c3oc4ncccc4c3n2)nc1 [Example 42, 4-morpholino-N-(pyrimidin-2-yl)pyrido[3′,2′:4,5]furo[3,2-d]pyrimidin-2-amine]	> 10				
c1ccc(-c2ccc(Nc3nc(N4CCOCC4)c4oc5ncccc5c4n3)cc2)cc1 [Example 44, N-([1,1′-biphenyl]-4-yl)-4-morpholinopyrido[3′,2′:4,5]furo[3,2-d]pyrimidin-2-amine]	0.356				
c1ccc(-c2cccc(Nc3nc(N4CCOCC4)c4oc5ncccc5c4n3)c2)cc1 [Example 45, N-([1,1′-biphenyl]-3-yl)-4-morpholinopyrido[3′,2′:4,5]furo[3,2-d]pyrimidin-2-amine]	3.98				
c1ccc(-c2ccccc2Nc2nc(N3CCOCC3)c3oc4ncccc4c3n2)cc1 [Example 46, N-([1,1′-biphenyl]-2-yl)-4-morpholinopyrido[3′,2′:4,5]furo[3,2-d]pyrimidin-2-amine]	3.87				
Cc1ccccc1-c1cc(Nc2nc(N3CCOCC3)c3oc4ncccc4c3n2)[nH]n1 [Example 48, 4-morpholino-N-(3-(o-tolyl)-1H-pyrazol-5-yl)pyrido[3′,2′:4,5]furo[3,2-d]pyrimidin-2-amine]	0.515				
Cc1ccc(-c2cc(Nc3nc(N4CCOCC4)c4oc5ncccc5c4n3)[nH]n2)cc1 [Example 50, 4-morpholino-N-(3-(p-tolyl)-1H-pyrazol-5-yl)pyrido[3′,2′:4,5]furo[3,2-d]pyrimidin-2-amine]	0.398				
Brc1cnc2oc3c(N4CCOCC4)nc(Nc4cc(-c5ccccc5)[nH]n4)nc3c2c1 [Example 51, 8-bromo-4-morpholino-N-(5-phenyl-1H-pyrazol-3-yl)pyrido[3′,2′:4,5]furo[3,2-d]pyrimidin-2-amine]	0.862				
c1cnc2oc3c(N4CCOCC4)ncnc3c2c1 [Example 52, 4-Morpholinopyrido[3′,2′:4,5]furo[3,2-d]pyrimidine]	> 10				
c1cnc2oc3c(N4CCOCC4)nc(Nc4cc(C5CC5)n[nH]4)nc3c2c1 [Example 53, N-(3-cyclopropyl-1H-pyrazol-5-yl)-4-morpholinopyrido[3′,2′:4,5]furo[3,2-d]pyrimidin-2-amine hydrochloride]	2.09				
c1cnc2oc3c(N4CCOCC4)nc(Nc4cc(CC5CC5)n[nH]4)nc3c2c1 [Example 54, N-(3-(cyclopropylmethyl)-1H-pyrazol-5-yl)-4-morpholinopyrido[3′,2′:4,5]furo[3,2-d]pyrimidin-2-amine hydrochloride]	2.6				
c1cnc2oc3c(N4CCOCC4)nc(Nc4cc(C5CCC5)n[nH]4)nc3c2c1 [Example 55, N-(3-cyclobutyl-1H-pyrazol-5-yl)-4-morpholinopyrido[3′,2′:4,5]furo[3,2-d]pyrimidin-2-amine hydrochloride]	1.28	0.016	0.315	0.007	
FC(F)(F)c1cc(Nc2nc(N3CCOCC3)c3oc4ncccc4c3n2)[nH]n1 [Example 57, 4-morpholino-N-(3-(trifluoromethyl)-1H-pyrazol-5-yl)pyrido[3′,2′:4,5]furo[3,2-d]pyrimidin-2-amine hydrochloride]	5.9				
c1ccc(Cc2cc(Nc3nc(N4CCOCC4)c4oc5ncccc5c4n3)[nH]n2)cc1 [Example 58, N-(3-benzyl-1H-pyrazol-5-yl)-4-morpholinopyrido[3′,2′:4,5]furo[3,2-d]pyrimidin-2-amine hydrochloride]	0.831				
c1cnc2oc3c(N4CCOCC4)nc(Nc4cc(C5CCCC5)n[nH]4)nc3c2c1 [Example 59, N-(3-cyclopentyl-1H-pyrazol-5-yl)-4-morpholinopyrido[3′,2′:4,5]furo[3,2-d]pyrimidin-2-amine hydrochloride]	1.29				
c1csc(-c2cc(Nc3nc(N4CCOCC4)c4oc5ncccc5c4n3)[nH]n2)c1 [Example 60, 4-morpholino-N-(3-(thiophen-2-yl)-1H-pyrazol-5-yl)pyrido[3′,2′:4,5]furo[3,2-d]pyrimidin-2-amine hydrochloride]	0.037				
CCc1cc(Nc2nc(N3CCOCC3)c3oc4ncccc4c3n2)[nH]n1 [Example 62, N-(3-ethyl-1H-pyrazol-5-yl)-4-morpholinopyrido[3′,2′:4,5]furo[3,2-d]pyrimidin-2-amine hydrochloride]	7.85				
CC(C)c1cc(Nc2nc(N3CCOCC3)c3oc4ncccc4c3n2)[nH]n1 [Example 63, N-(3-isopropyl-1H-pyrazol-5-yl)-4-morpholinopyrido[3′,2′:4,5]furo[3,2-d]pyrimidin-2-amine hydrochloride]	1.85				
